Measurements reported in the supplement of paper PMC9763283.
Structures can show the parent of a compound that is named as a salt.

Tests used:
Assay in all cases: area under growth-rate inhibition curve (AUC GRI) (dimensionless (GR-based AUC)); higher = less growth inhibition
Details in all cases: exposure time: 72 h; concentrations: 0.1, 1, 10 uM
MDA-MB-231 = system: MDA-MB-231
Procedure, shortened: (§1)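 Six breast cancer cell line models (two triple-negative lines, plus parental and lapatinib + trastuzumab-resistant HER2+ lines) were plated at optimised log-phase densities and exposed to compound at 0.1, 1 or 10 µM for 72 h. Cells were fixed in 4% paraformaldehyde, and nuclei were stained with Hoechst 33342 or DAPI, imaged and counted. Area under the growth-rate inhibition curve came from 2 biological replicates, with growth corrected using Day 0 plates, untreated Day 3 plates and DMSO controls.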

SKBR3-LTR = system: SKBR3-LTR
Procedure, shortened: as §1

SKBR3-P = system: SKBR3-P
Procedure, shortened: as §1

MDA-MB-468 = system: MDA-MB-468
Procedure, shortened: as §1

BT474-LTR = system: BT474-LTR
Procedure, shortened: as §1

BT474-P = system: BT474-P
Procedure, shortened: as §1

Row | Structure (SMILES) | area under growth-rate inhibition curve (MDA-MB-231) | area under growth-rate inhibition curve (SKBR3-LTR) | area under growth-rate inhibition curve (SKBR3-P) | area under growth-rate inhibition curve (MDA-MB-468) | area under growth-rate inhibition curve (BT474-LTR) | area under growth-rate inhibition curve (BT474-P)
1 | [Cl-].[H+].c1ccc(CN(CC2=NCCN2)c2ccccc2)cc1 [Antazoline hydrochloride] | 1.03 | 1.05 | 1.03 | 1.04 | 1.05 | 1.01
2 | CCOc1cc([C@@H](CS(C)(=O)=O)N2C(=O)c3cccc(NC(C)=O)c3C2=O)ccc1OC [Apremilast] | 1 | 1.05 | 1.02 | 1.03 | 1.04 | 1.01
3 | COC(=O)C1=CCCN(C)C1.[Br-].[H+] [Arecoline] | 1.03 | 1.03 | 1.02 | 0.988 | 1.06 | 1.04
4 | O=C1CCc2ccc(OCCCCN3CCN(c4cccc(Cl)c4Cl)CC3)cc2N1 [Aripiprazole] | 0.988 | 0.996 | 0.971 | 0.863 | 0.955 | 0.924
5 | CN1CC2c3ccccc3Oc3ccc(Cl)cc3C2C1.O=C(O)C=CC(=O)O (centres undefined) [Asenapine] | 1.02 | 0.993 | 0.975 | 0.959 | 1.06 | 1.01
6 | CCC1(c2c[nH]cn2)Cc2ccccc2C1 [Atipamezole hydrochloride] | 1.03 | 1.07 | 0.985 | 1.02 | 1.11 | 1.04
7 | CCC1(c2c[nH]cn2)Cc2ccccc2C1 [Atipamezole] | 1.02 | 1.09 | 1.01 | 1.01 | 1.08 | 1.04
8 | CNCC[C@@H](Oc1ccccc1C)c1ccccc1.Cl [Atomoxetine HCl] | 1.02 | 1.05 | 1.01 | 1.01 | 1.09 | 1.04
9 | CN1C2CCC1CC(OC(=O)C(CO)c1ccccc1)C2 (centres undefined) [Atropine] | 1.03 | 1.09 | 1.03 | 1.04 | 1.11 | 1.04
10 | CN1CCC(=C2c3ccccc3CCc3cccnc32)CC1.O=C(O)C=CC(=O)O.O=C(O)C=CC(=O)O [Azatadine dimaleate] | 1.05 | 1.01 | 1.02 | 1.05 | 1.12 | 1.07
11 | CN1CCCC(n2nc(Cc3ccc(Cl)cc3)c3ccccc3c2=O)CC1.[Cl-].[H+] (centres undefined) [Azelastine HCl] | 1.02 | 1.02 | 0.938 | 0.985 | 1.06 | 1.01
12 | CCc1cc(C(C)=NOCc2ccc(C3CCCCC3)c(C(F)(F)F)c2)ccc1CN1CC(C(=O)O)C1 [BAF312 (Siponimod)] | 1.01 | 0.968 | 0.99 | 0.961 | 0.989 | 1.01
13 | COc1ccc2c(c1)c(CC(=O)N1CCOCC1)c(C)n2C(=O)c1ccc(Cl)cc1 [BML-190] | 1.01 | 1.03 | 1.02 | 1.01 | 1.08 | 1.03
14 | COc1ccccc1N1CCN(CCN2C(=O)CC3(CCCC3)CC2=O)CC1.[Cl-].[Cl-].[H+].[H+] [BMY 7378] | 1.03 | 1.1 | 0.982 | 1.02 | 1.11 | 1.03
15 | CC(C)C[C@@H]1NC(=O)[C@@H](C(C)C)NC(=O)[C@@H]2CCCN2C(=O)[C@@H](CC(=O)O)NC(=O)[C@@H](Cc2c[nH]c3ccccc23)NC1=O [BQ-123] | 0.988 | 1.03 | 1.01 | 0.996 | 1.02 | 0.983
16 | CN(C)C(=O)Oc1cc(OC(=O)N(C)C)cc(C(O)CNC(C)(C)C)c1.[Cl-].[H+] (centres undefined) [Bambuterol HCl] | 1.04 | 1.03 | 1.01 | 1.03 | 1.09 | 1.06
17 | Cc1c(-c2ccc(O)cc2)n(Cc2ccc(OCCN3CCCCCC3)cc2)c2ccc(O)cc12.[Cl-].[H+] [Bazedoxifene HCl] | 0.9 | 0.944 | 0.956 | 0.898 | 0.949 | 0.755
18 | Cl.NC(CO)C(=O)NNCc1ccc(O)c(O)c1O (centres undefined) [Benserazide HCl] | 1.05 | 1.05 | 1.03 | 1.06 | 1.1 | 1.05
19 | CS(=O)(=O)[O-].C[NH+]1[C@@H]2CC[C@H]1C[C@@H](OC(c1ccccc1)c1ccccc1)C2 [Benztropine mesylate] | 1.03 | 1.01 | 0.986 | 0.994 | 1.08 | 1.03
20 | O=C(O)CCCN1CCC(OC(c2ccc(Cl)cc2)c2ccccn2)CC1.O=S(=O)(O)c1ccccc1 (centres undefined) [Bepotastine Besilate] | 1.03 | 1.06 | 0.992 | 1.03 | 1.09 | 1.03
21 | CC(C)NCC(O)COc1ccc(CCOCC2CC2)cc1.[Cl-].[H+] (centres undefined) [Betaxolol hydrochloride (Betoptic)] | 1.05 | 1.06 | 0.98 | 1.04 | 1.1 | 1.02
22 | CC(C)NCC(O)COc1ccc(CCOCC2CC2)cc1.[Cl-].[H+] (centres undefined) [Betaxolol] | 1.05 | 1.07 | 0.996 | 1.01 | 1.07 | 1.01
23 | CC(C[N+](C)(C)C)OC(N)=O.[Cl-] (centres undefined) [Bethanechol chloride] | 1.03 | 1.07 | 1.03 | 1.04 | 1.11 | 1.05
24 | Oc1c(Cl)cc(Cl)cc1Sc1cc(Cl)cc(Cl)c1O [Bithionol] | 1.03 | 1.02 | 1.01 | 0.985 | 1.06 | 0.999
